Test results taken from the supplement of paper PMC12370961.

What was measured:
Assay in all cases: differential drug sensitivity score (dDSS) relative to sarcoma reference cohort mean DSS (DSS units (0-100 scale difference)); higher = more selective sensitivity than reference sarcomas
Details in all cases: exposure time: 72 h; concentration range: 10-10000 nM
[1] = test system: ES-ZH001 (patient-derived Ewing sarcoma tumoroid)
Experimental: (§1)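 Drug response profiling of patient-derived Ewing sarcoma and CIC::DUX4 sarcoma tumoroid models (or cells tested directly after isolation from the tumor, 'direct'). The DSS is the normalised AUC (0-100); dDSS is the sample DSS minus the mean DSS of a 34-sarcoma reference cohort profiled in the same lab.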

[2] = test system: ES-ZH008 (patient-derived Ewing sarcoma tumoroid)
Experimental: as §1

[3] = test system: CDS-ZH001-2 (patient-derived CIC-DUX4 sarcoma tumoroid)
Experimental: as §1

[4] = test system: ES-ZH007 (patient-derived Ewing sarcoma tumoroid)
Experimental: as §1

[5] = test system: ES-ZH004 (patient-derived Ewing sarcoma tumoroid)
Experimental: as §1

[6] = test system: ES-ZH016 (patient-derived Ewing sarcoma tumoroid)
Experimental: as §1

[7] = test system: ES-ZH009 (patient-derived Ewing sarcoma tumoroid)
Experimental: as §1

[8] = test system: CDS-ZH002 direct (CIC-DUX4 sarcoma cells right after isolation)
Experimental: as §1

[9] = test system: CDS-ZH003 (patient-derived CIC-DUX4 sarcoma tumoroid)
Experimental: as §1

[10] = test system: CDS-ZH001 (patient-derived CIC-DUX4 sarcoma tumoroid)
Experimental: as §1

[11] = test system: CDS-ZH002 (patient-derived CIC-DUX4 sarcoma tumoroid)
Experimental: as §1

[12] = test system: ES-ZH016 direct (Ewing sarcoma cells right after isolation)
Experimental: as §1

[13] = test system: ES-ZH002 (patient-derived Ewing sarcoma tumoroid)
Experimental: as §1

SMILES | differential drug sensitivity score [1] | differential drug sensitivity score [2] | differential drug sensitivity score [3] | differential drug sensitivity score [4] | differential drug sensitivity score [5] | differential drug sensitivity score [6] | differential drug sensitivity score [7] | differential drug sensitivity score [8] | differential drug sensitivity score [9] | differential drug sensitivity score [10] | differential drug sensitivity score [11] | differential drug sensitivity score [12] | differential drug sensitivity score [13]
CO[C@@H](C)Cn1c(=O)n(C)c2cnc3ccc(-c4cncc(C(C)(C)O)c4)cc3c21 [Samotolisib] | 1 | 10.9 | 0.9 | 2.6 | 2.3 | 6 | 7.1 | 4.5 | 0.5 | 2.3 | -8.8 | -2.7 | 12.2
CN1CCN(CCOc2cc(OC3CCOCC3)c3c(Nc4c(Cl)ccc5c4OCO5)ncnc3c2)CC1 [Saracatinib] | -0.7 | 5.7 | 0.9 | -2.3 | 2.9 | -1.7 | -2.8 | 4.3 | -1.5 | 0.3 | -0.5 | 2.3 | 5.6
O=C(/C=C\n1cnc(-c2cc(C(F)(F)F)cc(C(F)(F)F)c2)n1)NNc1cnccn1 [Selinexor] | -0.6 | 16.7 | 1.3 | 3.2 | 13.5 | -2.7 | -11.6 | -3.6 | -0.6 | -1.3 | -5.5 | 2.2 | 6.2
NC(=O)C1CCCc2c1[nH]c1ccc(Cl)cc21 (configuration not stated) [Selisistat] | -1.4 | 8.9 | -1.3 | -1.4 | -1.3 | -0.9 | -0.7 | -1.4 | -2 | -0.5 | -0.9 | -1.3 | -1
Cn1cnc2c(F)c(Nc3ccc(Br)cc3Cl)c(C(=O)NOCCO)cc21 [Selumetinib] | -2 | 5.1 | -2 | -2 | -1.9 | -2 | -2 | -2 | 2.5 | -2 | -2 | -2 | -2
CO[C@H]1C[C@@H]2CC[C@@H](C)[C@@](O)(O2)C(=O)C(=O)N2CCCC[C@H]2C(=O)O[C@H]([C@H](C)C[C@@H]2CC[C@@H](O)[C@H](OC)C2)CC(=O)[C@H](C)/C=C(\C)[C@@H](O)[C@@H](OC)C(=O)[C@H](C)C[C@H](C)/C=C/C=C/C=C/1C [Sirolimus] | 5.7 | 6.7 | -0.4 | 7.2 | 14.2 | -0.6 | 2.7 | -2.2 | -6.7 | -10.4 | -10.4 | -8.7 | 17.8
Cc1c(C(=O)Nc2ccc(N3C[C@@H](C)O[C@@H](C)C3)nc2)cccc1-c1ccc(OC(F)(F)F)cc1 [Sonidegib] | -1.1 | -1.4 | -1.4 | -1.4 | -1.4 | -1.4 | -1.4 | -1.4 | 2.3 | -1.4 | -1.4 | -1.4 | -1.1
CNC(=O)c1cc(Oc2ccc(NC(=O)Nc3ccc(Cl)c(C(F)(F)F)c3)cc2)ccn1 [Sorafenib] | -0.8 | -1.2 | -1 | -1.2 | -1.2 | -1.2 | 0.2 | -0.3 | -1.8 | -0.5 | -1.2 | -1.2 | -1.2
C=CC(=O)N1CCN(c2nc(=O)n(-c3c(C)ccnc3C(C)C)c3nc(-c4c(O)cccc4F)c(F)cc23)[C@@H](C)C1 [Sotorasib] | 4.7 | 4.1 | 0.9 | -3.1 | 5.9 | 2.8 | 5.5 | 1.9 | -4.3 | 2.7 | -0.1 | 6.3 | 10.6
C=CC(=O)Nc1cccc(Nc2nc(Nc3ccc(OCCOC)cc3)ncc2F)c1 [Spebrutinib] | 1.8 | 4.7 | -3.1 | -1.6 | 3.7 | -1.4 | -2 | -3.5 | -2.8 | -2.5 | -2.9 | 4.7 | 8.3
CCN(CC)CCNC(=O)c1c(C)[nH]c(/C=C2\C(=O)Nc3ccc(F)cc32)c1C [Sunitinib] | 7.6 | -0.8 | 3.9 | 2.2 | 2.3 | 0.7 | 1.7 | -2 | -3.3 | 3.2 | -1.4 | 6.4 | 8.5
CN(C)C/C=C/C(=O)Nc1ccc(C(=O)Nc2cccc(Nc3ncc(Cl)c(-c4c[nH]c5ccccc45)n3)c2)cc1 [THZ1] | 4.2 | 8.6 | 6.7 | 0.1 | 11.4 | 10.2 | 7.4 | 9.2 | -8.9 | 0 | 0.9 | 9 | 4.3
Cn1ncnc1[C@H]1c2n[nH]c(=O)c3cc(F)cc(c23)N[C@@H]1c1ccc(F)cc1 [Talazoparib] | 26.5 | 24.9 | 8.2 | 25.9 | 21.6 | 24.4 | 11.3 | -2.2 | 0.3 | -1.8 | -5.9 | 18.1 | 28.8
CCN(c1cc(-c2ccc(CN3CCOCC3)cc2)cc(C(=O)NCc2c(C)cc(C)[nH]c2=O)c1C)C1CCOCC1 [Tazemetostat] | -1.1 | -1.1 | -1.1 | -1.1 | -1.1 | -0.7 | 1 | -1.1 | -7 | -0.8 | -0.9 | -1.1 | -1.1
